Assay results published in patent publication US4443436A, “C-20-Modified macrolide derivatives of the macrolide antibiotics tylosin, desmycosin, macrocin, and lactenocin” (Eli Lilly and Company, priority 1982, dated 1984).
In brackets after ≈: the same amount, converted by molar mass. Read-outs that look alike come from different tables or passages of the source.

How the values were obtained:
[1] = test system: Streptococcus pyogenes C203; assay: MIC, standard agar-dilution assay, Streptococcus pyogenes C203; format: cell-based
Mycoplasma hyorhinis = assay: MIC, broth-dilution microtiter test, Mycoplasma hyorhinis; format: cell-based
Source text: (§1) The MIC's in Table X were obtained using conventional broth-dilution microtiter tests.

[2] = test system: Pasteurella multocida 17E; assay: MIC, broth-dilution microtiter test, Pasteurella multocida 17E; format: cell-based; conditions: Pasteurella multocida 17E, bovine isolate, broth-dilution microtiter
Source text: as §1

Mycoplasma synoviae = assay: MIC, broth-dilution microtiter test, Mycoplasma synoviae; format: cell-based; conditions: Mycoplasma synoviae, broth-dilution microtiter
Source text: as §1

[3] = test system: Haemophilus influenzae R252; assay: MIC, standard agar-dilution assay, Haemophilus influenzae R252; format: cell-based
[4] = test system: Staphylococcus aureus X1.1; assay: MIC, standard agar-dilution assay, Staphylococcus aureus X1.1; format: cell-based
[5] = test system: Pasteurella multocida 60A; assay: MIC, broth-dilution microtiter test, Pasteurella multocida 60A; format: cell-based
Source text: as §1

[6] = test system: Pasteurella hemolytica 22C; assay: MIC, broth-dilution microtiter test, Pasteurella hemolytica 22C; format: cell-based
Source text: as §1

[7] = test system: Staphylococcus aureus X400; assay: MIC, standard agar-dilution assay, Staphylococcus aureus X400; format: cell-based
[8] = test system: Streptococcus pyogenes C203; assay: In vivo protection of mice experimentally infected with S. pyogenes C203; conditions: mice, doses given 1 and 4 hours post-infection; for ED50: Streptococcus pyogenes
Description: The C-20 modified derivatives of this invention have shown in vivo antimicrobial activity against experimentally-induced infections in laboratory animals. When two doses of test compound were administered to mice experimentally infected with S. pyogenes C203, the activity observed was measured as an ED50 value [effective dose in mg/kg to protect 50% of the test animals: see Warren Wick, et al., J. Bacteriol. 81, 233-235 (1961)].

[9] = test system: Staphylococcus epidermidis EPI2; assay: MIC, standard agar-dilution assay, Staphylococcus epidermidis EPI2; format: cell-based; conditions: Staphylococcus epidermidis EPI2, agar dilution
[10] = test system: Streptococcus pneumoniae Park I; assay: microbe, parasite or virus in culture; format: cell-based
[11] = test system: Haemophilus influenzae Holt; assay: MIC, standard agar-dilution assay, Haemophilus influenzae Holt; format: cell-based
[12] = test system: Staphylococcus aureus S13E; assay: MIC, standard agar-dilution assay, Staphylococcus aureus S13E; format: cell-based
[13] = test system: Streptococcus Group D X66; assay: MIC, standard agar-dilution assay, Streptococcus Group D X66; format: cell-based
[14] = test system: Staphylococcus aureus V41; assay: MIC, standard agar-dilution assay, Staphylococcus aureus V41; format: cell-based
Streptococcus bovis 80 = assay: MIC, broth-dilution microtiter test, Streptococcus bovis 80; format: cell-based; conditions: Streptococcus bovis 80, broth-dilution microtiter
Source text: as §1

Staphylococcus aureus = assay: MIC, broth-dilution microtiter test, Staphylococcus aureus; format: cell-based
Source text: as §1

Mycoplasma gallisepticum = assay: MIC, broth-dilution microtiter test, Mycoplasma gallisepticum; format: cell-based; conditions: Mycoplasma gallisepticum, broth-dilution microtiter
Source text: as §1

Mycoplasma hyopneumoniae = assay: MIC, broth-dilution microtiter test, Mycoplasma hyopneumoniae; format: cell-based
Source text: as §1

[15] = test system: Staphylococcus epidermidis EPI1; assay: MIC, standard agar-dilution assay, Staphylococcus epidermidis EPI1; format: cell-based
Streptococcus Group 9960 = assay: MIC, standard agar-dilution assay, Streptococcus Group 9960; format: cell-based; conditions: Streptococcus Group 9960, agar dilution
[16] = Streptococcus pyogenes C203, agar dilution
[17] = Mycoplasma hyorhinis, broth-dilution microtiter
[18] = Haemophilus influenzae R252, ampicillin-resistant strain, agar dilution
[19] = Staphylococcus aureus X1.1, agar dilution
[20] = Pasteurella multocida 60A, avian isolate, broth-dilution microtiter
[21] = Pasteurella hemolytica 22C, broth-dilution microtiter
[22] = Staphylococcus aureus X400, methicillin-resistant strain, agar dilution
[23] = Streptococcus pneumoniae Park I, agar dilution
[24] = Haemophilus influenzae Holt, ampicillin-sensitive strain, agar dilution
[25] = Staphylococcus aureus S13E, agar dilution
[26] = Streptococcus Group D X66, agar dilution
[27] = Staphylococcus aureus V41, penicillin-resistant strain, agar dilution
[28] = Mycoplasma hyopneumoniae, broth-dilution microtiter
[29] = Staphylococcus epidermidis EPI1, agar dilution

**Q.** With `CCC1OC(=O)CC(O)C(C)C(OC2OC(C)C(O)C(N(C)C)C2O)C(CCOc2ccc(C=O)cc2)CC(C)C(=O)C=CC(C)=CC1COC1OC(C)C(O)C(OC)C1OC` (stereo not drawn) [Compound 36, 20-DH-20-O-(p-formylphenyl)desmycosin] as the molecule, how does the MIC ([1]; Streptococcus pyogenes, C203) read?
**A.** The MIC was 1 µg/mL (≈ 1.14 µM).

**Q.** And the MIC (Mycoplasma hyorhinis; Mycoplasma)?
**A.** The MIC was 50 µg/mL (≈ 56.9 µM).

**Q.** What about the MIC ([2]; read-out: MIC) of the same molecule?
**A.** Its MIC is 25 µg/mL (≈ 28.5 µM).

**Q.** And the MIC (Mycoplasma synoviae; Mycoplasmopsis synoviae, read-out: MIC)?
**A.** Its MIC is over 50 µg/mL.

**Q.** What about the MIC ([3]; Haemophilus influenzae, R252) of the same molecule?
**A.** Its MIC is 16 µg/mL (≈ 18.2 µM).

**Q.** And the MIC ([4]; Staphylococcus aureus, X1.1)?
**A.** Its MIC is 0.25 µg/mL (≈ 0.285 µM).

**Q.** What about the MIC ([5]; Pasteurella multocida, 60A) of the same molecule?
**A.** Its MIC is 12.5 µg/mL (≈ 14.2 µM).

**Q.** And the MIC ([6]; Pasteurella, 22C)?
**A.** The MIC was 50 µg/mL (≈ 56.9 µM).

**Q.** What about the MIC ([7]; Staphylococcus aureus, X400) of the same molecule?
**A.** The MIC was 0.25 µg/mL (≈ 0.285 µM).

**Q.** What about the ED50 ([8]; C203, sc, subcutaneous, read-out: ED50, Subcutaneous) of the same molecule?
**A.** The ED50 was 2.2 mg/kg.

**Q.** And the ED50 ([8]; C203, oral, read-out: ED50, Oral)?
**A.** Its ED50 is 19 mg/kg.

**Q.** What about the MIC ([9]; read-out: MIC) of the same molecule?
**A.** The MIC was 0.12 µg/mL (≈ 0.137 µM).

**Q.** What about the MIC ([10]; Streptococcus pneumoniae) of the same molecule?
**A.** Its MIC is 1 µg/mL (≈ 1.14 µM).

**Q.** And the MIC ([11]; Haemophilus influenzae)?
**A.** Its MIC is 16 µg/mL (≈ 18.2 µM).

**Q.** What about the MIC ([12]; Staphylococcus aureus, S13E) of the same molecule?
**A.** Its MIC is 0.25 µg/mL (≈ 0.285 µM).

**Q.** What about the MIC [13] of the same molecule?
**A.** Its MIC is 4 µg/mL (≈ 4.56 µM).

**Q.** And the MIC ([14]; Staphylococcus aureus, V41)?
**A.** Its MIC is 0.25 µg/mL (≈ 0.285 µM).

**Q.** What about the MIC (Streptococcus bovis 80; Streptococcus equinus, read-out: MIC) of the same molecule?
**A.** The MIC was 12.5 µg/mL (≈ 14.2 µM).

**Q.** What about the MIC (Staphylococcus aureus) of the same molecule?
**A.** Its MIC is 12.5 µg/mL (≈ 14.2 µM).

**Q.** And the MIC (Mycoplasma gallisepticum; Mycoplasmoides gallisepticum, read-out: MIC)?
**A.** Its MIC is 25 µg/mL (≈ 28.5 µM).

**Q.** What about the MIC (Mycoplasma hyopneumoniae; Mesomycoplasma hyopneumoniae) of the same molecule?
**A.** The MIC was 12.5 µg/mL (≈ 14.2 µM).

**Q.** And the MIC ([15]; Staphylococcus epidermidis, EPI1)?
**A.** Its MIC is 0.25 µg/mL (≈ 0.285 µM).

**Q.** And the MIC (Streptococcus Group 9960; GROUP9960, read-out: MIC)?
**A.** Its MIC is 8 µg/mL (≈ 9.11 µM).

**Q.** Which results are given for `CCC1OC(=O)CC(O)C(C)C(OC2OC(C)C(O)C(N(C)C)C2O)C(CCOc2ccc(-c3ccccc3)cc2)CC(C)C(=O)C=CC(C)=CC1COC1OC(C)C(O)C(OC)C1OC` (stereo not drawn) [Compound 41, 20-DH-20-O-(p-Phenylphenyl)desmycosin]?
**A.** MIC [1, 16]: 0.25 µg/mL (≈ 0.27 µM); MIC (Mycoplasma hyorhinis; [17]): 3.12 µg/mL (≈ 3.37 µM); MIC [2]: 12.5 µg/mL (≈ 13.5 µM); MIC (Mycoplasma synoviae): 0.39 µg/mL (≈ 0.421 µM); MIC [3, 18]: 16 µg/mL (≈ 17.3 µM); MIC [4, 19]: 0.5 µg/mL (≈ 0.54 µM); MIC [5, 20]: 12.5 µg/mL (≈ 13.5 µM); MIC [6, 21]: 25 µg/mL (≈ 27 µM); MIC [7, 22]: 0.5 µg/mL (≈ 0.54 µM); ED50, Oral ([8]; oral): 25 mg/kg × 2; ED50, Subcutaneous ([8]; subcutaneous): > 10 mg/kg × 2; MIC [9]: 0.25 µg/mL (≈ 0.27 µM); MIC [10, 23]: 0.25 µg/mL (≈ 0.27 µM); MIC [11, 24]: 16 µg/mL (≈ 17.3 µM); MIC [12, 25]: 0.25 µg/mL (≈ 0.27 µM); MIC [13, 26]: 0.5 µg/mL (≈ 0.54 µM); MIC [14, 27]: 0.25 µg/mL (≈ 0.27 µM); MIC (Streptococcus bovis 80): 0.39 µg/mL (≈ 0.421 µM); MIC (Staphylococcus aureus; broth-dilution microtiter): 0.19 µg/mL (≈ 0.205 µM); MIC (Mycoplasma gallisepticum): < 0.05 µg/mL; MIC (Mycoplasma hyopneumoniae; [28]): 3.12 µg/mL (≈ 3.37 µM); MIC [15, 29]: 0.5 µg/mL (≈ 0.54 µM); MIC (Streptococcus Group 9960): 0.5 µg/mL (≈ 0.54 µM)

**Q.** `CCC1OC(=O)CC(O)C(C)C(OC2OC(C)C(O)C(N(C)C)C2O)C(CCOc2ccc(Oc3ccccc3)cc2)CC(C)C(=O)C=CC(C)=CC1COC1OC(C)C(O)C(OC)C1OC` (stereo not drawn) [Compound 47, 20-DH-20-O-(p-Phenoxyphenyl)desmycosin] was tested. Which MIC [1, 16] did it give?
**A.** Its MIC is 0.25 µg/mL (≈ 0.265 µM).

**Q.** And the MIC (Mycoplasma hyorhinis; [17])?
**A.** The MIC was 6.25 µg/mL (≈ 6.63 µM).

**Q.** What about the MIC [2] of the same molecule?
**A.** Its MIC is 25 µg/mL (≈ 26.5 µM).

**Q.** And the MIC (Mycoplasma synoviae)?
**A.** Its MIC is 0.09 µg/mL (≈ 0.0955 µM).

**Q.** And the MIC [3, 18]?
**A.** Its MIC is 16 µg/mL (≈ 17 µM).

**Q.** And the MIC [4, 19]?
**A.** Its MIC is 0.5 µg/mL (≈ 0.531 µM).

**Q.** And the MIC [5, 20]?
**A.** Its MIC is 25 µg/mL (≈ 26.5 µM).

**Q.** What about the MIC [6, 21] of the same molecule?
**A.** The MIC was 25 µg/mL (≈ 26.5 µM).

**Q.** And the MIC [7, 22]?
**A.** The MIC was 0.5 µg/mL (≈ 0.531 µM).

**Q.** What about the “ED50, Oral” value ([8]; oral) of the same molecule?
**A.** Its value is 29 mg/kg × 2.

**Q.** What about the “ED50, Subcutaneous” value ([8]; subcutaneous) of the same molecule?
**A.** The value was over 10 mg/kg × 2.

**Q.** And the MIC [9]?
**A.** The MIC was 0.25 µg/mL (≈ 0.265 µM).

**Q.** What about the MIC [10, 23] of the same molecule?
**A.** The MIC was 0.25 µg/mL (≈ 0.265 µM).

**Q.** What about the MIC [11, 24] of the same molecule?
**A.** Its MIC is 16 µg/mL (≈ 17 µM).

**Q.** And the MIC [12, 25]?
**A.** Its MIC is 0.25 µg/mL (≈ 0.265 µM).

**Q.** What about the MIC [13, 26] of the same molecule?
**A.** The MIC was 0.5 µg/mL (≈ 0.531 µM).

**Q.** And the MIC [14, 27]?
**A.** The MIC was 0.5 µg/mL (≈ 0.531 µM).

**Q.** What about the MIC (Streptococcus bovis 80) of the same molecule?
**A.** Its MIC is 0.09 µg/mL (≈ 0.0955 µM).

**Q.** What about the MIC (Staphylococcus aureus; broth-dilution microtiter) of the same molecule?
**A.** Its MIC is 0.78 µg/mL (≈ 0.828 µM).

**Q.** And the MIC (Mycoplasma gallisepticum)?
**A.** Its MIC is under 0.05 µg/mL.

**Q.** And the MIC (Mycoplasma hyopneumoniae; [28])?
**A.** Its MIC is 3.12 µg/mL (≈ 3.31 µM).

**Q.** And the MIC [15, 29]?
**A.** The MIC was 0.5 µg/mL (≈ 0.531 µM).

**Q.** And the MIC (Streptococcus Group 9960)?
**A.** Its MIC is 1 µg/mL (≈ 1.06 µM).
